# Measurements taken from the NIST ThermoML archive (doi:10.1021/je2002495).
# Numbers after ± are expanded uncertainties.
# Key:
# [1] = Liquid; for mass density: 298.15 K, 101.33 kPa, Pycnometric method
# [2] = excess molar enthalpy (molar enthalpy of mixing); xn = mol fraction of the nth substance listed; conditions: 298.15 K, 101 kPa, Liquid, Calvet calorimetry
SMILES,mass density [1],Normal boiling temperature ([1]; Distillation),excess molar enthalpy ([2]; x1 = 0.095),excess molar enthalpy ([2]; x1 = 0.199),excess molar enthalpy ([2]; x1 = 0.298),excess molar enthalpy ([2]; x1 = 0.403),excess molar enthalpy ([2]; x1 = 0.505),excess molar enthalpy ([2]; x1 = 0.601),excess molar enthalpy ([2]; x1 = 0.703),excess molar enthalpy ([2]; x1 = 0.807),excess molar enthalpy ([2]; x1 = 0.904)
c1ccncc1 [pyridine],981.3 ± 0.9 kg/m3,114.8 ± 1.1 °C,,,,,,,,,
c1ccncc1 [pyridine] + O,,,-0.0945 ± 0.00574 kcal/mol,-0.207 ± 0.0124 kcal/mol,-0.261 ± 0.0158 kcal/mol,-0.294 ± 0.0177 kcal/mol,-0.306 ± 0.0184 kcal/mol,-0.295 ± 0.0179 kcal/mol,-0.27 ± 0.0163 kcal/mol,-0.208 ± 0.0127 kcal/mol,-0.0813 ± 0.00502 kcal/mol
O [water],996.5 ± 0.9 kg/m3,,,,,,,,,,
